Reference: US20260306641A1, “HELICASE DEGRADERS” (priority 2023, published 2026)

Key:
[1] = molecular target: T1, human CMG helicase (hCMG); test: hCMG helicase fork-unwinding (strand displacement) assay; assay type: biochemical; conditions: for inhibition of hCMG helicase activity, SAR set: 500 μM compound
T1 construct: made in house; host or cells: High Five insect cells, baculovirus (11 viruses co-infected)
Description: The human CMG helicase was purified following the established and validated protocol of Hurwitz and colleagues(19,20), with minor modifications. A detailed description of the approach is shown here, to allow for comparisons to the methods described by the Hurwitz group.
High Five insect cells (2-3 million cells/ml, 1.5 L), were in cultured in a shaking incubator at 27° C. in suspension with ESF921 serum free medium (Expression Systems, CA; cat. #96-001-01), then co-infected for 60 hrs with 11 baculoviruses expressing human 6His2Flag-Cdc45, the human MCM hexamer (Mcm2, Mcm3, Mcm4, Mem5, Mcm6, Mcm7), and human GINS (GST-Sld5, Psf3, Psf2, and Psf1). Each virus was infected at an MOI of ~10 from individual virus stocks. Infected cells were harvested by centrifugation at 650×g for 5 min at 4° C., washed with cold PBS, frozen on dry ice, and stored at −80° C. until use. The cell pellet (~20 mL) was thawed on ice, resuspended in 45 ml Hypotonic Buffer [20 mM Hepes-NaOH (pH 7.5), 5 mM KCl, 1.5 mM MgCl2] with protease inhibitors (1 mM [COMPOUND LEFT OUT], 1 mM Benzamidine, 0.15 μM Aprotinin, 4 μM Leupeptin, and 1 μM Antipain), and kept on ice for 10 min before lysing by Dounce homogenization (tight fitting, 60 strokes). The cell extract was adjusted to 0.42 M potassium acetate and centrifuged at 43,000×g for 1 hr at 4° C. The cleared lysate was mixed with 0.75 ml glutathione beads (cat. #17-0756-05; GE Healthcare) pre-equilibrated with FEQ buffer [20 mM Hepes-NaOH (pH 7.5), 0.42 M potassium acetate, 5 mM KCl, 1.5 mM MgCl2] and incubated by rotation at 4° C. overnight. Following centrifugation at 290×g at 4° C., the bound glutathione beads were washed four times (15 min each wash) with 40 ml of FW buffer [20 mM Hepes-NaOH (pH 7.5), 0.42 M potassium acetate, 1 mM DTT, 1 mM EDTA, 0.01% NP40, 10% glycerol (vol/vol) with protease inhibitors as above] containing protease inhibitors (as above). Bound proteins were eluted at 4° C. three times (1 hr each elution) with 3.5 ml Q buffer [20 mM Hepes-NaOH (pH 7.5), 1 mM DTT, 1 mM EDTA, 0.01% NP40, 10% glycerol (vol/vol), and protease inhibitors as above] containing 0.15 M potassium acetate and 20 mM reduced glutathione. The eluted fractions were combined and applied to a HiTrap Q-Sepharose FF column (HiTrap Q FF 1 mL, cat. #17505301, Cytiva), pre-equilibrated 3× with 5 ml of Q buffer containing 0.15 M, 0.75 M, 0.15M potassium acetate, in sequence. The Q-Sepharose FF column was washed with 10 ml of FW buffer containing protease inhibitors (as above). The proteins were eluted with 10 ml of Q buffer containing 0.75 M potassium acetate. The eluted fraction was mixed with 0.15 ml of anti-Flag M2 affinity gel/beads and incubated while rotating at 4° C. overnight. After centrifugation at 290×g for 5 min at 4° C., the beads were washed three times with 10 ml PreScission buffer [50 mM Tris-HCl (pH 7.5), 0.15 M NaCl, 1 mM DTT, 1 mM EDTA] for 15 min at 4° C., and eluted at 4° C. three times (1 hr each elution) with 0.2 ml PreScission enzyme buffer containing 0.2 mg/ml 3×-Flag peptides. The combined eluates were incubated with 20 Units of PreScission Protease (GE Healthcare) and 0.1 mL glutathione beads for 4 hr at 4° C. The supernatant was layered onto a 15-40% glycerol gradient [25 mM Tris-HCl (pH 7.5), 50 mM NaCl, 1 mM DTT, 1 mM EDTA, 0.01% NP40, protease inhibitors as above] in a 5 mL ultra-centrifugation tube and centrifuged at 260,000×g for 14 hr at 4° C. Glycerol fractions (0.15 mL each fraction) were collected from bottom of tube and stored at −80° C. until use. Typically, fractions 6-9 contained complete hCMG (~750-800 kDa) and co-migrated with thyroglobulin.
Helicase fork-unwinding assays were performed at 37° C. for 1 hr in 20 μL reaction volumes using 2-4 μl of hCMG (~15-30 fmol), in a buffer consisting of 25 mM Hepes-NaOH (pH 7.5), 5 mM NaCl, 0.5 mM ATP, 10 mM magnesium acetate, 1 mM DTT, 0.1 mg/ml bovine serum albumin (BSA), and ~10 fmol of radiolabeled DNA forks (20). […]

[2] = system: HaCaT cells; test: BrdU labeling of DNA replication in synchronized HaCaT cells; assay type: cell-based, human; conditions: treated at 18 hrs, analyzed 3 hrs later; CA1/novobiocin 15 μM, etoposide 5 μM
Description: Verification of synchronization and determination of drug effects was performed by measuring the incorporation of bromo-deoxyuridine (BrdU) into replicating foci within nuclei. At times indicated, cells were pulse-labeled with 15 μM BrdU for 30 min, fixed with 4% paraformaldehyde, and analyzed by standard immunofluorescent techniques(40,51) with an anti-BrdU monoclonal antibody (Roche, clone no. BMC9318, RRID:AB_2313622). The average counts of three fields of 100 or more cells were used to determine the percentages of BrdU-labeled nuclei, +/−1 s.d.

[3] = system: MCM/CMG and replisome proteins in HaCaT cells; test: Immunoblots of chromatin-bound or total proteins, synchronized HaCaT cells; assay type: cell-based, human; conditions: S-phase cells; etoposide 5 μM
[4] = system: T1, human CMG helicase (hCMG); test: hCMG ATPase activity, FP ADP^2 Transcreener assay; assay type: biochemical; conditions: role: product, 15 fmol hCMG, 500 μM ATP
Description: The fluorescent-polarization (FP) ADP-sensing assays were performed using the Transcreener® ADP^2 FP assay kit (cat #3010-1K, Bellbrook Labs). For hCMG inhibitor screening, assays were performed at 37° C. for 1 hr in 10 μl reactions in a 384-well plate (cat. #4514, Corning) using 2 μL of hCMG (~15 fmol), 25 mM Hepes-NaOH (pH 7.5), 10 mM NaCl, 0.5 mM ATP, 10 mM magnesium acetate, 1 mM DTT, 0.1 mg/ml BSA, and DNA fork substrates. […] Selected inhibitors or samples from a chemical library were added into the reactions when conducting the screening or testing inhibitor effectiveness. The NCI Diversity Set VI chemical library was obtained from the National Cancer Institute (Bethesda, MD).
The window of sensitivity for the ADP-sensing assays is determined by setting up two 10 μL control samples without any added hCMG helicase: a Low-FP mixture (4 nM ADP Alexa Fluor-633 Tracer alone) and a High-FP mixture (4 nM ADP Alexa Fluor-633 Tracer plus patented anti-ADP^2 Antibody). The amount of ADP^2 Antibody used had to be adjusted to account for the use of 500 μM ATP in our hCMG assays, versus 10 μM ATP in enzyme reactions typically assessed with standard kits prepared by BellBrook Labs. […] This was done according to the manufacturer by performing a titration with increasing ADP^2 Antibody, fixed 4 nM ADP Alexa Fluor-633 Tracer, and 500 μM ATP to determine the ~EC80-85 for millipol (mP) changes, which determined the optimal ADP^2 Antibody concentration to use as 0.64 mg/ml (FIG. 9A). Samples are read with a Perkin Elmer Envision II plate reader with optimized Cy5 (far-red) FP-compatible mirror and cubes (cat #2100-8390, Perkin Elmer). The Low-FP sample is the least polarized and gives a low mP reading, while the High-FP sample is the most polarized and gives the highest mP reading. The difference between the Low-FP and High-FP values defines the FP assay window, which is normally in a range of 150-200 mP under ideal conditions for screening purposes. The hCMG helicase hydrolyzes ATP to ADP and decreases the mP reading within this window, with an ideal change (ΔmP) in the FP window of at least 50% to be in a readable range for inhibitor screening (as per manufacturer). Potential hCMG chemical inhibitors reverse this effect and cause the mP readings to increase.
We performed a titration with increasing and decreasing concentrations of ADP and ATP, respectively, to assess the sensitivity of the FP assay in detecting ADP production (FIG. 9B). Consistent with the stated manufacturer predictions, the assay can reliably detect 1-3% changes in ADP production (i.e., 5-15 μM ADP production) in starting concentrations of ATP of 500 μM, with a Z′ efficiency between 0.6-0.8 (determined following manufacturer protocols).
Once the hCMG enzyme reactions are complete, 10 μL of 1× Stop Solution and Detection Buffer (buffer from BellBrook Labs; containing 4 nM ADP Alexa Fluor-633 Tracer plus ADP^2 Antibody) are added to each reaction, and to the High-FP control. The Low-FP control receives 10 μL of 1× Stop Solution and Detection Buffer containing only 4 nM ADP Alexa Fluor-633 Tracer (no Antibody). Samples are incubated at 25° C. for 1 hr, then read in the plate reader. […] Plate readings from these tests of potential positive hits should be similar to that seen with the Low-FP control, or such hits may instead be false-positives.

T1 sequence (P49736 whole entry): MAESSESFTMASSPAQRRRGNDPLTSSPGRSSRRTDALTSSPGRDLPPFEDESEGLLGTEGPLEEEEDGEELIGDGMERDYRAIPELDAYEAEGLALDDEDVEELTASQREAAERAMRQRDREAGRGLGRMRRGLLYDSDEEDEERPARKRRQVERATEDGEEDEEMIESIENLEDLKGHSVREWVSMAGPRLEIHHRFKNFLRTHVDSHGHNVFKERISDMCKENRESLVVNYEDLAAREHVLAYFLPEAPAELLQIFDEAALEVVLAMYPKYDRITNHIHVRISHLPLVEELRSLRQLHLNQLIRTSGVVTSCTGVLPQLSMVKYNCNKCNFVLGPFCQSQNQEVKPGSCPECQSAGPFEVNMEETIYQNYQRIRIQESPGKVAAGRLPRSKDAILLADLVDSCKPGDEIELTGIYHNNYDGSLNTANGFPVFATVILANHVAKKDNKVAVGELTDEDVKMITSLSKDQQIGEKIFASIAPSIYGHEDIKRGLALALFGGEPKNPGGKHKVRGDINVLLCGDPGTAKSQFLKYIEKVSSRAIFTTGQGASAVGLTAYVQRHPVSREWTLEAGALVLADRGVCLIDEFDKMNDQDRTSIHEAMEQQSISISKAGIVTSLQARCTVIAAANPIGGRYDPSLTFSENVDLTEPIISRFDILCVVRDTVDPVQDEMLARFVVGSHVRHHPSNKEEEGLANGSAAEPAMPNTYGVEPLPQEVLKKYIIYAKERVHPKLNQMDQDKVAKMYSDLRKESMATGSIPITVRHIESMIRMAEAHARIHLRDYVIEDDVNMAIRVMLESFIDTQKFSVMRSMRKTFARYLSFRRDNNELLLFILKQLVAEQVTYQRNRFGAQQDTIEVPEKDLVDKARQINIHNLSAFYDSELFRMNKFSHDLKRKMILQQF
T1 sequence (P25205 whole entry, further chain): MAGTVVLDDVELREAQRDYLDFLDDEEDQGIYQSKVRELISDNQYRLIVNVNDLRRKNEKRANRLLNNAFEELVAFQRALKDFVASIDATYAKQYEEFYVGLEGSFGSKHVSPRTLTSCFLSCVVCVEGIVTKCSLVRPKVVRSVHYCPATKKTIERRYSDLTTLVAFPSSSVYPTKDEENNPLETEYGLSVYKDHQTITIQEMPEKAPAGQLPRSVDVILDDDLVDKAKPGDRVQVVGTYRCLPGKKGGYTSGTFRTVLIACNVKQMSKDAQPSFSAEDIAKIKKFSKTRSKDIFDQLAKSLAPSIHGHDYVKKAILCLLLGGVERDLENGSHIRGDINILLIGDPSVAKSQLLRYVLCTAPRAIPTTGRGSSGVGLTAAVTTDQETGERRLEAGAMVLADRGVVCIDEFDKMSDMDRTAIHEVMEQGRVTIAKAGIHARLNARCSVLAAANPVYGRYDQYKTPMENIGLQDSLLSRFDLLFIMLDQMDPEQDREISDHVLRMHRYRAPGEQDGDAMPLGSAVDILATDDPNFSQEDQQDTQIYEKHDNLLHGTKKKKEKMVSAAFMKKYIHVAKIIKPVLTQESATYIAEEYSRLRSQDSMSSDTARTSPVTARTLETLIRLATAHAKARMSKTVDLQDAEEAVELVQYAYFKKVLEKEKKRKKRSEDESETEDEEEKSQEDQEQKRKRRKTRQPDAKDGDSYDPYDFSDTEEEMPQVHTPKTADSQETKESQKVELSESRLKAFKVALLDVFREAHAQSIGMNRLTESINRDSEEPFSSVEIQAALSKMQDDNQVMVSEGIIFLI
T1 sequence (P33991 whole entry, further chain): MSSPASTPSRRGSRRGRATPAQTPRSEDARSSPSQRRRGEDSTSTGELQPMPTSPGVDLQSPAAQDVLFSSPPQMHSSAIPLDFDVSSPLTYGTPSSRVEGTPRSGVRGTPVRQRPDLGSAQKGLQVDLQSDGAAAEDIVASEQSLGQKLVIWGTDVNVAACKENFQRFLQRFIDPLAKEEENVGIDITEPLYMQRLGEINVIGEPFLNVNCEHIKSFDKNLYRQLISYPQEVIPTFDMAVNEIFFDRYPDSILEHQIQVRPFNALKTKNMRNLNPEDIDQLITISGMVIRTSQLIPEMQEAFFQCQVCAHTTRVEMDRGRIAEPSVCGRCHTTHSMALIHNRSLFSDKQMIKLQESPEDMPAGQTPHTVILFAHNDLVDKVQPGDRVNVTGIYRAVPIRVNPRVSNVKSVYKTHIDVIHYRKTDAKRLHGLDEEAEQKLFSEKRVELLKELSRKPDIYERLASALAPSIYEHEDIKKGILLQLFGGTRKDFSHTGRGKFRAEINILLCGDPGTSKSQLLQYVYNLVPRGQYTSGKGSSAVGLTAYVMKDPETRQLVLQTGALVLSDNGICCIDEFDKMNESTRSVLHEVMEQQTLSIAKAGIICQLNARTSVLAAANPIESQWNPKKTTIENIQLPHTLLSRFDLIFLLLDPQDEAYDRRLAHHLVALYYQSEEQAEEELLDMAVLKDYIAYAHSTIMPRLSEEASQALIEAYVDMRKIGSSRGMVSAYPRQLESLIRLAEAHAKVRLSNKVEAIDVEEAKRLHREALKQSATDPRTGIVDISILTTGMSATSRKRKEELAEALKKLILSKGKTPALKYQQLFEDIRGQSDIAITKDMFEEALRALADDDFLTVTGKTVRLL
T1 sequence (P33992 whole entry, further chain): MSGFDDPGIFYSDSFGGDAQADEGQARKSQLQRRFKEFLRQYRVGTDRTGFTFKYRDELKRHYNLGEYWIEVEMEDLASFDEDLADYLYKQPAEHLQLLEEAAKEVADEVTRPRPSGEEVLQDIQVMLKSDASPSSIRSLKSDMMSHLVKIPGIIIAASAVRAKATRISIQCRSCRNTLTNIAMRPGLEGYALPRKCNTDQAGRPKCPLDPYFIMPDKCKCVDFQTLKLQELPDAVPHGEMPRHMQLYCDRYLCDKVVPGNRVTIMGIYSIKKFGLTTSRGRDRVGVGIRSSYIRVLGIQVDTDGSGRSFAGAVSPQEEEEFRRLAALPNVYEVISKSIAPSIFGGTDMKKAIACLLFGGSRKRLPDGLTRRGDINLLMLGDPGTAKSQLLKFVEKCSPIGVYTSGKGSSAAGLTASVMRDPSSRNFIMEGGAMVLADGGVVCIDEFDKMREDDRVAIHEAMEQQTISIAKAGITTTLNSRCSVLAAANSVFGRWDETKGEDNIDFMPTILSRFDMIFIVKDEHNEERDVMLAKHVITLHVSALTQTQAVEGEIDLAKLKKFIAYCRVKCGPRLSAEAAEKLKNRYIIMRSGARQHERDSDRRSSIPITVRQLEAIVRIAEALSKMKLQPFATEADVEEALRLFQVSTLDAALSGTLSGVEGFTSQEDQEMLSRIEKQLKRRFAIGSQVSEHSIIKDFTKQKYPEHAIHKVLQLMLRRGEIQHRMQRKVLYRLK
T1 sequence (Q14566 whole entry, further chain): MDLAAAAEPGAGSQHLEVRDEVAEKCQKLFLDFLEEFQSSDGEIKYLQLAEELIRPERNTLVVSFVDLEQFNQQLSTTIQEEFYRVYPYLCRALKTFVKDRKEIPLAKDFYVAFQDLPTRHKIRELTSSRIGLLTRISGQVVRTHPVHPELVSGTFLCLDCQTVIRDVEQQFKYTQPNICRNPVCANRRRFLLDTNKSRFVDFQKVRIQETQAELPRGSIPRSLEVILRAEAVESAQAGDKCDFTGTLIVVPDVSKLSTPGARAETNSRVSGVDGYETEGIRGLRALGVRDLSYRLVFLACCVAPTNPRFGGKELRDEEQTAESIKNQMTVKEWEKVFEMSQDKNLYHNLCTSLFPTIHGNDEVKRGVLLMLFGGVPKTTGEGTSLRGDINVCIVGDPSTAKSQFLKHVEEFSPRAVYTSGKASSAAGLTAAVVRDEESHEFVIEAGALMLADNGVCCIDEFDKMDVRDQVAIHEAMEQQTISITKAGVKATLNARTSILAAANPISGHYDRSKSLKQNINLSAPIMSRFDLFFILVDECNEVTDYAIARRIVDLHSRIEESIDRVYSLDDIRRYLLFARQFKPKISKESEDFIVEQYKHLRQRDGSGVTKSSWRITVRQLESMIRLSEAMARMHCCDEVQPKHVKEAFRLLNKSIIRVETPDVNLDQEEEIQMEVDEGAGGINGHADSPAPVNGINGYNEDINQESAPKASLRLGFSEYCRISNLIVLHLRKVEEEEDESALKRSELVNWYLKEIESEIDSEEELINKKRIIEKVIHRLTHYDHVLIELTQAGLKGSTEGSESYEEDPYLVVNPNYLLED
T1 sequence (P33993 whole entry, further chain): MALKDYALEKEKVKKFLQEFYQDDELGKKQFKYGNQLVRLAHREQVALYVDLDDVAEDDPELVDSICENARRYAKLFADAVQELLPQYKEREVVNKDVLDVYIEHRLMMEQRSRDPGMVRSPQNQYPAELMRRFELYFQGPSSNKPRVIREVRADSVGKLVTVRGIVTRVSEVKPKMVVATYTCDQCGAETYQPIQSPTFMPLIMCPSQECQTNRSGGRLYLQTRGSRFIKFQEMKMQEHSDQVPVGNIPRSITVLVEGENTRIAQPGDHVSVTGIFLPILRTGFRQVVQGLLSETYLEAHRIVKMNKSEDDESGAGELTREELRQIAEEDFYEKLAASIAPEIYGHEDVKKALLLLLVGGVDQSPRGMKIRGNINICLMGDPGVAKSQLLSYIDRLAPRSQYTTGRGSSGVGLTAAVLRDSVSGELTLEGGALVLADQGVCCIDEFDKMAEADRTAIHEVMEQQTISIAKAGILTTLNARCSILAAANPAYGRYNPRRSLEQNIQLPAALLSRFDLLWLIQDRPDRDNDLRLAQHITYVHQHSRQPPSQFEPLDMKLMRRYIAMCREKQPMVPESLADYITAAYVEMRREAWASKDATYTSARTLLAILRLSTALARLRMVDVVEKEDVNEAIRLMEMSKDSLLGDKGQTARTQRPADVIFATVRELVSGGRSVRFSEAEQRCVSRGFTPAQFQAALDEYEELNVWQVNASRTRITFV

Compound: CO[C@@H]1[C@@H](OC(=O)c2ccc(C)[nH]2)[C@@H](O)[C@H](Oc2ccc3c(O)c(NC(=O)c4ccc(O)c(CC=C(C)C)c4)c(=O)oc3c2C)OC1(C)C [MBC, (3R,4S,5R,6R)-5-Hydroxy-6-((4-hydroxy-3-(4-hydroxy-3-(3-methylbut-2-en-1-yl)benzamido)-8-methyl-2-oxo-2H-chromen-7-yl)oxy)-3-methoxy-2,2-dimethyltetrahydro-2H-pyran-4-yl]
- IC50 ([1]; fork-unwinding, read-out: IC50 for hCMG helicase inhibition): ~59 µM

Compound: CC(C)=CCc1cc(C(=O)Nc2c(O)c3ccc(O)c(C)c3oc2=O)ccc1O [MBC-D2, N-(4,7-Dihydroxy-8-methyl2-oxo-2H-chromen-3-yl)-4-hydroxy-3-(3-methylbut-2-en-1-yl)benzamide]
- inhibition of hCMG helicase activity, SAR set [1]: somewhat effective at inhibiting the hCMG

Compound: (3R,4S,5R,6R)-5-Hydroxy-6-((4-hydroxy-3-(4-hydroxy-3-(3-methylbut-2-en-1-yl)benzamido)-8-methyl-2-oxo-2H-chromen-7-yl)oxy)-3-methoxy-2,2-dimethyltetrahydro-2H-pyran-4-yl [MBC]
- inhibition of hCMG helicase activity, SAR set [1]: potently inhibit the hCMG

Compound: COc1cc([C@@H]2c3cc4c(cc3[C@@H](O[C@@H]3O[C@@H]5CO[C@@H](C)O[C@H]5[C@H](O)[C@H]3O)[C@H]3COC(=O)[C@H]23)OCO4)cc(OC)c1O [etoposide]
- hCMG helicase inhibition by etoposide ([1]; fork-unwinding): does not inhibit hCMG activity
- hCMG helicase inhibition by etoposide ([1]; fork-unwinding, listed as Etoposide): no effect on hCMG helicase activity in vitro
- DNA replication (BrdU), early S-phase treatment [2]: effectively suppressed DNA replication
- DNA polymerases-a and -d on chromatin [3]: small change
- replisome components or RPA on chromatin [3]: does not significantly diminish replisome components or RPA on chromatin

Compound: CO[C@@H]1[C@@H](OC(=O)c2ccc(C)[nH]2)[C@@H](O)C(O)OC1(C)C (mixture of isomers) [MBC-D1, (3R,4S,5R)-5,6-Dihydroxy-3-methoxy-2,2-dimethyltetrahydro-2H-pyran-4-y 5-methyl-1H-pyrrole-2-carboxylate]
- inhibition of hCMG helicase activity, SAR set [1]: only a small level of inhibition

Compound: O=C(O)c1cn(C2CC2)c2cc(N3CCNCC3)c(F)cc2c1=O [ciprofloxacin]
- hCMG helicase inhibition by quinolones ([1]; 100 μM or 1000 μM): do not inhibit the purified hCMG helicase

Compound: Nc1ncnc2c1ncn2[C@@H]1O[C@H](COP(=O)(O)OP(=O)(O)O)[C@@H](O)[C@H]1O [ADP]
- ADP conversion rate by the hCMG [4]: ~ 1.5%
- production of ADP ([4]; 10 μL reaction, 1 hr): 7 to 8 µM

Compound: Nc1ncnc2c1ncn2[C@@H]1O[C@H](COP(=O)(O)OP(=O)(O)OP(O)(O)=S)[C@@H](O)[C@H]1O [ATP-γ-S]
- suppression of fork-unwinding activity ([1]; 500 μM ATP, increasing ATP-gamma-S): dose-dependent suppression of fork-unwinding activity

Compound: CO[C@@H]1[C@@H](O)[C@@H](O)[C@H](Oc2ccc3c(O)c(NC(=O)c4ccc(O)c(CC=C(C)C)c4)c(=O)oc3c2C)OC1(C)C [MBC-D3, N-(7-(((2R,3R,4S,5R)-3,4-Dihydroxy-5-methoxy-6,6-dimethyltetrahydro-2H-pyran-2-yl)oxy)-4-hydroxy-8-methyl-2-oxo-2H-chromen-3-yl)-4-hydroxy-3-(3-methylbut-2-en-1-yl)benzamide]
- inhibition of hCMG helicase activity, SAR set [1]: this inhibition of the hCMG is diminished when the noviose sugar is added
